Measurements reported in patent US8026269B2, “Isoindoline compounds and methods of making and using the same” (Celgene Corporation, priority 2004, dated 2011).

| Compound | melting point |
| --- | --- |
| CCOc1cc([C@@H](CS(C)(=O)=O)N2C(=O)c3cccc(NC(=O)c4ccco4)c3C2=O)ccc1OC [Example 2, (1S)-Furan-2-carboxylic Acid {2-[1-(3-ethoxy-4-methoxyphenyl)-2-methanesulfonyl-ethyl]-1,3-dioxo-2,3-dihydro-1H-isoindol-4-yl}-amide] | 184 to 186 °C |
| CCOc1cc([C@@H](CS(C)(=O)=O)N2C(=O)c3cccc(NC(=O)COC)c3C2=O)ccc1OC [Example 3, (1S)—N-{2-[1-(3-ethoxy-4-methoxyphenyl)-2-methanesulfonyl-ethyl]-1,3-dioxo-2,3-dihydro-1H-isoindol-4-yl}-2-methoxy-acetamide] | 151 to 153 °C |
| CCOc1cc(C(CC#N)N2C(=O)c3ccc(NC(N)=O)cc3C2=O)ccc1OC (centres unmarked) [Example 11] | 163 to 165 °C |
| CCOc1cc(C(CC#N)N2C(=O)c3cccc(NC(N)=O)c3C2=O)ccc1OC (centres unmarked) [Example 12] | 179 to 181.5 °C |
| COc1ccc(C(CS(C)(=O)=O)N2C(=O)c3cccc(NC(C)=O)c3C2=O)cc1OCC1CC1 (centres unmarked) [Example 13, N-{2-[1-(3-Cyclopropylmethoxy-4-methoxy-phenyl)-2-methanesulfonyl-ethyl]-1,3-dioxo-2,3-dihydro-1H-isoindol-4-yl}-acetamide] | 102 to 104 °C |
| CCOc1cc([C@@H](CS(C)(=O)=O)N2Cc3cccc(NC(=O)N(C)C)c3C2=O)ccc1OC [Example 16, (1S)-3-{2-[1-(3-Ethoxy-4-methoxy-phenyl)-2-methanesulfonyl-ethyl]-3-oxo-2,3-dihydro-1H-isoindol-4-yl}-1,1-dimethyl-urea] | 170 to 172 °C |

More lines, now with the values ahead:

| melting point | Compound |
| --- | --- |
| 163 to 165 °C | CCOc1cc(C(CC#N)N2C(=O)c3ccc4ccccc4c3C2=O)ccc1OC (centres unmarked) [Example 1, 3-(1,3-Dioxobenzo[e]isoindolin-2-yl)-3-(3-ethoxy-4-methoxyphenyl)propanenitrile] |
| 147 to 149 °C | CCOc1cc([C@@H](CS(C)(=O)=O)N2Cc3cccc(NCC4CC4)c3C2=O)ccc1OC [Example 4, (1S)-7-(Cyclopropylmethyl-amino)-2-[1-(3-ethoxy-4-methoxyphenyl)-2-methanesulfonyl-ethyl]-2,3-dihydro-isoindol-1-one] |
| 122 to 124 °C | CCOc1cc([C@@H](CS(C)(=O)=O)N2Cc3cccc(NCC(C)C)c3C2=O)ccc1OC [Example 5, (1S)-2-[1-(3-Ethoxy-4-methoxyphenyl)-2-methanesulfonyl-ethyl]-7-isobutylamino-2,3-dihydro-isoindol-1-one] |
| 111 to 113 °C | CCOc1cc([C@@H](CC(=O)N(C)C)N2Cc3cccc(NCC(C)(C)C)c3C2=O)ccc1OC [Example 6, (3R)-3-[7-(2,2-Dimethyl-propylamino)-1-oxo-1,3-dihydro-isoindol-2-yl]-3-(3-ethoxy-4-methoxyphenyl)-N,N-dimethyl-propionamide] |
| 105 to 107 °C | CCOc1cc([C@@H](CC(=O)N(C)C)N2Cc3cccc(NC(=O)N(C)C)c3C2=O)ccc1OC [Example 15, (3R)-3-(7-(3,3-Dimethyl-ureido)-1-oxo-1,3-dihydro-isoindol-2-yl}-3-(3-ethoxy-4-methoxy-phenyl)-N,N-dimethyl-propionamide] |
